Drawing on patent US20250114345A1, “COMPOUNDS AND COMPOSITIONS AS CBP/P300 DEGRADERS AND USES THEREOF” (Oncopia Therapeutics, Inc. d/b/a/ SK Life Science Labs, priority 2023, published 2025), this text covers DC50 and Dmax for six compounds.

The target of assay [1] is T1, CBP (Homo sapiens, UniProt Q92793).
T1 construct: host or cells: A549 CBP HiBit cells
Nature of the assay: CBP degradation, HiBit technology in A549 CBP HiBit cells (24 h). The format is cell-based. The conditions noted are these: 24 hrs post treatment. The essentials:
(§1)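 Endogenously HiBiT-tagged A549 cells are plated, left overnight, then treated with a compound dilution series at 37 °C and 5% CO2. At the set time, lytic detection buffer is added and plates are shaken 10 min at room temperature before luminescence is measured to derive potency and Dmax.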
For orientation: With HiBiT, luminescence reflects the tagged protein that the partner subunit can reach.

Assay [2] deals with T2, p300 (Homo sapiens, UniProt Q09472).
T2 construct: host or cells: A549 P300 HiBit cells
T2 sequence (Q09472 whole entry): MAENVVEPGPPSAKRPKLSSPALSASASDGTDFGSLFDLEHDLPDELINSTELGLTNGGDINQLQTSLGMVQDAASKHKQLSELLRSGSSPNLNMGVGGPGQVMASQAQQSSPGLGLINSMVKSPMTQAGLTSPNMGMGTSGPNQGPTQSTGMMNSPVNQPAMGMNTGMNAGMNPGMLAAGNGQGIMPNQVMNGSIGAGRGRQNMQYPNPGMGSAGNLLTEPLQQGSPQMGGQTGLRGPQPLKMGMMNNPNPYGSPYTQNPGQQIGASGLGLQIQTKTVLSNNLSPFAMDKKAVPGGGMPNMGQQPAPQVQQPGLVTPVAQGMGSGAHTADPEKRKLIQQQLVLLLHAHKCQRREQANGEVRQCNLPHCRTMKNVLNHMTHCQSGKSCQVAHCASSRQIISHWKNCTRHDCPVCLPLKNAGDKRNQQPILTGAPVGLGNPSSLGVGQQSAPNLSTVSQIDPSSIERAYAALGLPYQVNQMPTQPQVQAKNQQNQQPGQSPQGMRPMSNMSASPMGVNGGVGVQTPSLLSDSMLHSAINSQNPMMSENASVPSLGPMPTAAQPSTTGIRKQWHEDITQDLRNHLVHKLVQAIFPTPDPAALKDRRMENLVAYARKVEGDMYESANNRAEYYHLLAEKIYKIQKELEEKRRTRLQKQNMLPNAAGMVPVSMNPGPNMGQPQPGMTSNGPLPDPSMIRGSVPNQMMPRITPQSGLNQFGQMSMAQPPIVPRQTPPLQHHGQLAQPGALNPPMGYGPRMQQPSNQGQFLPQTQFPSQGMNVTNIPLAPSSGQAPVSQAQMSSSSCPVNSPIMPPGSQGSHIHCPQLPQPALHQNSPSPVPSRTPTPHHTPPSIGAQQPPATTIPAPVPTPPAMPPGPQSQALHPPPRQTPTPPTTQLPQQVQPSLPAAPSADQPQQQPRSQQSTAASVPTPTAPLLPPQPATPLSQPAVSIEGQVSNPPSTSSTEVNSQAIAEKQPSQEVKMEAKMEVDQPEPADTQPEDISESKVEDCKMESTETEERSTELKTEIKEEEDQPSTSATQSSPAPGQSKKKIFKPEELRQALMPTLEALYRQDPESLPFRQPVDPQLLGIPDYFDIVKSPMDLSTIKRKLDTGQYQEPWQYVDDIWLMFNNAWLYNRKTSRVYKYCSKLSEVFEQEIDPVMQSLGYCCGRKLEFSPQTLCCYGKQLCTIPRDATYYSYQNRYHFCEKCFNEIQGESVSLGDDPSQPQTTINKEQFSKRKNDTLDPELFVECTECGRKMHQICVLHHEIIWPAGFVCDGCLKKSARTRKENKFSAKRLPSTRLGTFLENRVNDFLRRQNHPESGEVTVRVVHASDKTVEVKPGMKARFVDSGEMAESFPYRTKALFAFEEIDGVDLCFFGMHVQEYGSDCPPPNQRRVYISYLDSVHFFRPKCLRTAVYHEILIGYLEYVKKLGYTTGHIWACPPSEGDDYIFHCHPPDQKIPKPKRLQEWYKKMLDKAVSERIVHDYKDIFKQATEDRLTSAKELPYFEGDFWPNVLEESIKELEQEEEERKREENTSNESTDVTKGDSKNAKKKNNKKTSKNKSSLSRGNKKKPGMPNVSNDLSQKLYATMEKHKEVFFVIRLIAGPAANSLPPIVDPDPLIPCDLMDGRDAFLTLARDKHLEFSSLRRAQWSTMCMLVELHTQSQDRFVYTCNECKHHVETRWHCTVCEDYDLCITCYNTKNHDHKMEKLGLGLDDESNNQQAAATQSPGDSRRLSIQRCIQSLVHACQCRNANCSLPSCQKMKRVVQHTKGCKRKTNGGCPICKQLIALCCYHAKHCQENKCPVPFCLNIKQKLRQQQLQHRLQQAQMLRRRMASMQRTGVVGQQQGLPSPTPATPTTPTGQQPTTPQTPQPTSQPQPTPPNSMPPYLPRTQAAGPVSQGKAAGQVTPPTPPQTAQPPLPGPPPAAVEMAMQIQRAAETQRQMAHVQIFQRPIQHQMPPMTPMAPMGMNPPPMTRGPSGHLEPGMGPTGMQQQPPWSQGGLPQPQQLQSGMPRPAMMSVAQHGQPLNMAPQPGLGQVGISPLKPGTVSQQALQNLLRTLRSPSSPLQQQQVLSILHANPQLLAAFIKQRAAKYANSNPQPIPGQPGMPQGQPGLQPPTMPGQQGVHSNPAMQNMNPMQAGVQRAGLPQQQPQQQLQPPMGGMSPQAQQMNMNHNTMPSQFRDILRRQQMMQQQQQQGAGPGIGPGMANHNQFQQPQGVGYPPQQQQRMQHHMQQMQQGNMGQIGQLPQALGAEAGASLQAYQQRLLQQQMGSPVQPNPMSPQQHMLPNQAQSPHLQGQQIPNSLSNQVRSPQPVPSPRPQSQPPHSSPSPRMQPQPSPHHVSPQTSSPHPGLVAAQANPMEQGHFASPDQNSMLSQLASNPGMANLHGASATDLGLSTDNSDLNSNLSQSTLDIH
Nature of the assay: P300 degradation, HiBit technology in A549 P300 HiBit cells (2 h). The format is cell-based. The conditions noted are these: 2 hrs post treatment; for Dmax: A549, A549 P300 HiBit cells; for DC50: A549 P300 HiBit cells. In a few lines:
as §1

A value given as a limit tells only on which side of the number the result lay.

T1 sequence (Q92793 whole entry): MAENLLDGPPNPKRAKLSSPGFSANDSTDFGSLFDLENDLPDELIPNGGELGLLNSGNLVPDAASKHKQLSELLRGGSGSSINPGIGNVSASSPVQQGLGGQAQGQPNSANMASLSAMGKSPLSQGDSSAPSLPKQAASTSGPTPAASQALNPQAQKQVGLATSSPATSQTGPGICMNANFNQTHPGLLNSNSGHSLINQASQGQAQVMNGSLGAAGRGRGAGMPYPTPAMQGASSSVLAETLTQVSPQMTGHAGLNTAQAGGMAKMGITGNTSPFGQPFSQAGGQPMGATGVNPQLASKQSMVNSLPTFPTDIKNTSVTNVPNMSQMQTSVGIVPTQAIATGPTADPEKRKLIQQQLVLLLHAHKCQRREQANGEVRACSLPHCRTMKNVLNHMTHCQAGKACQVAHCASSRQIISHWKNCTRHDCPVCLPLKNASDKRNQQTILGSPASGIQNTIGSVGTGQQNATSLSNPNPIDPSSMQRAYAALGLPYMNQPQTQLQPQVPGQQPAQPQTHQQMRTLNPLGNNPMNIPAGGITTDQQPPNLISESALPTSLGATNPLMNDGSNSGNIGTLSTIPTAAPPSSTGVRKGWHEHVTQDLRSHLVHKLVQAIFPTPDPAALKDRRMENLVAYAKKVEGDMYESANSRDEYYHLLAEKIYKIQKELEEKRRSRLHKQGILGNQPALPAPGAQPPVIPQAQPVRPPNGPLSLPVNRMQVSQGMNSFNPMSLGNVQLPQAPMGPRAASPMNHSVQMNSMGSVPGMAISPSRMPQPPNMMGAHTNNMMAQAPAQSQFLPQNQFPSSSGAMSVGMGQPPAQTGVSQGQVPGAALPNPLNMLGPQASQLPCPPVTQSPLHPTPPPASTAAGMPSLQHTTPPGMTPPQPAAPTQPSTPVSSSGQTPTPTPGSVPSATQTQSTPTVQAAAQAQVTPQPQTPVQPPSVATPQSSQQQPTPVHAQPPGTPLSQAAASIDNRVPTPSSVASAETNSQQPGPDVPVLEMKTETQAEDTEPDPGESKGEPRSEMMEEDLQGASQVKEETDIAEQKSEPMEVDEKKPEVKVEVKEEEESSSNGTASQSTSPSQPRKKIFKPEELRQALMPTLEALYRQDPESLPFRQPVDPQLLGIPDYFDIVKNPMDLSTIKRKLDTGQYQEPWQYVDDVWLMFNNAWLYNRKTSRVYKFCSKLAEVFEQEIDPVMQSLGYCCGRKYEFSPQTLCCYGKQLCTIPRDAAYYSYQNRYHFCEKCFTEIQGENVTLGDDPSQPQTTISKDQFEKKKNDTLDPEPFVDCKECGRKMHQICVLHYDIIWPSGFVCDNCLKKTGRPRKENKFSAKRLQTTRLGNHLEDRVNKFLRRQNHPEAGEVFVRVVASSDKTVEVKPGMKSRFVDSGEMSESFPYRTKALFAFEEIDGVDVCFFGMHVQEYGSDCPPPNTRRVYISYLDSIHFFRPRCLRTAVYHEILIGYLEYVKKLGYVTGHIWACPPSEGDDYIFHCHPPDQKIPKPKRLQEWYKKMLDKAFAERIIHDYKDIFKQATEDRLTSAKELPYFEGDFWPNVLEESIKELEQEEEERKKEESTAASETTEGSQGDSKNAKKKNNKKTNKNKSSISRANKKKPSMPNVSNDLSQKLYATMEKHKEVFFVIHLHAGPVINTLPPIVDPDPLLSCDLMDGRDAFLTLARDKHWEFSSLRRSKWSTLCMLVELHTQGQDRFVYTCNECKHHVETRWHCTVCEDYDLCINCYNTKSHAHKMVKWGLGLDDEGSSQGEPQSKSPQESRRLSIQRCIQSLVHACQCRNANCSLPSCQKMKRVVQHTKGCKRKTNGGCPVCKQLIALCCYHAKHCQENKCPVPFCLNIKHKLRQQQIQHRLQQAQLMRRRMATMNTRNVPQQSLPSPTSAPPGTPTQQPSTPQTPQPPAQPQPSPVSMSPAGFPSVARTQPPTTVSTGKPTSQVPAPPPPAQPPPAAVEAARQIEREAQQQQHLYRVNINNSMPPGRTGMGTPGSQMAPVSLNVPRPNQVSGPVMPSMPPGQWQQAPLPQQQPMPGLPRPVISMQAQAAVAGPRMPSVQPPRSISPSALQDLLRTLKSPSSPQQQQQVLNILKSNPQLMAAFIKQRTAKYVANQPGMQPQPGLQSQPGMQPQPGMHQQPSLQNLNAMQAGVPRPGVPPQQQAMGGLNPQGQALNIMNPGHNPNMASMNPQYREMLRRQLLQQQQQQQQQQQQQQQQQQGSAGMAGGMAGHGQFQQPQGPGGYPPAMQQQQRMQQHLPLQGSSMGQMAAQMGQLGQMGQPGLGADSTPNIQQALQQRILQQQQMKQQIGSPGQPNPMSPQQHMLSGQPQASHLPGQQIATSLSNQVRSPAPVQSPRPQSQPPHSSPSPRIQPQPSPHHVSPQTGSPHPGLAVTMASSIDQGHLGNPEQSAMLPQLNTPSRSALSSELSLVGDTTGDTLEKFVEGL

Broadly, the DC50 is the concentration giving 50% degradation. Lower therefore signals degradation at low concentration. The term Dmax denotes the largest share of the target that was removed. Low readings indicate shallow degradation, high ones deep degradation. As for `Cc1cc2c(-c3cccc4cc(-c5ccc(C(=O)NCC#Cc6cc7c(C8CCC(=O)NC8=O)cccc7o6)nc5)ncc34)nc(N3CCOCC3)cc2n(C)c1=O` (stereo not drawn) [Example B74, 5-(8-(1,3-dimethyl-7-morpholino-2-oxo-1,2-dihydro-1,6-naphthyridin-5-yl)isoquinolin-3-yl)-N-(3-(4-(2,6-dioxopiperidin-3-yl)benzofuran-2-yl)prop-2-yn-1-yl)picolinamide], in assay [1], the DC50 was more than 1000 nM and the Dmax is less than 20%. For the same compound, in assay [2], the Dmax is more than 80% and the DC50 lay within 1 to 9.9 nM.
In assay [1], `CC(C)c1cc(C2=CC(C)(C)Oc3cc(-c4ccc(C(=O)NCC#Cc5ccc6occ(C7CCC(=O)NC7=O)c6c5)nc4)c(F)cc32)cc2c1n(C)c(=O)n2C` (stereo not drawn) [Example A57, N-(3-(3-(2,6-dioxopiperidin-3-yl)benzofuran-5-yl)prop-2-yn-1-yl)-5-(6-fluoro-4-(7-isopropyl-1,3-dimethyl-2-oxo-2,3-dihydro-1H-benzo[d]imidazol-5-yl)-2,2-dimethyl-2H-chromen-7-yl)picolinamide] registered a DC50 of more than 1000 nM and a Dmax of less than 20%. In addition, in assay [2], the Dmax was more than 80% and the DC50 was 10 to 99 nM.
On to `Cc1cc2c(N3CCCc4nc(-c5ccc(C(=O)NCC#Cc6ccc7occ(C8CCC(=O)NC8=O)c7c6)nc5)ncc43)cc(C3CCOCC3)cc2n(C)c1=O` (stereo not drawn) [Example B53, 5-(5-(1,3-dimethyl-2-oxo-7-(tetrahydro-2H-pyran-4-yl)-1,2-dihydroquinolin-5-yl)-5,6,7,8-tetrahydropyrido[3,2-d]pyrimidin-2-yl)-N-(3-(3-(2,6-dioxopiperidin-3-yl)benzofuran-5-yl)prop-2-yn-1-yl)picolinamide], for which, in assay [1], the DC50 was more than 1000 nM and the Dmax was less than 20%. In assay [2], this compound returned a Dmax of more than 80% and a DC50 of less than 1 nM.
In assay [1], `CC(C)c1cc(-c2cccc3cc(-c4ccc(C(=O)NCC#Cc5cc(F)c6occ(C7CCC(=O)NC7=O)c6c5)nc4)ncc23)cc2c1n(C)c(=O)n2C` (stereo not drawn) [Example A254, N-(3-(3-(2,6-dioxo-piperidin-3-yl)-7-fluorobenzofuran-5-yl)prop-2-yn-1-yl)-5-(8-(7-isopropyl-1,3-dimethyl-2-oxo-2,3-dihydro-1H-benzo [d]imidazol-5-yl)isoquinolin-3-yl)picolinamide] displayed a DC50 of more than 1000 nM and a Dmax of less than 20%. In assay [2], the Dmax is more than 80% and the DC50 lay in the range of 1 to 9.9 nM.
Turning to `Cc1cc2c(N3CCCc4nc(-c5ccc(C(=O)NCC#Cc6ccc7occ(C8CCC(=O)NC8=O)c7c6)nc5)ncc43)cccc2n(C)c1=O` (stereo not drawn) [Example B110, 5-(5-(1,3-dimethyl-2-oxo-1,2-dihydroquinolin-5-yl)-5,6,7,8-tetrahydropyrido[3,2-d]pyrimidin-2-yl)-N-(3-(3-(2,6-dioxopiperidin-3-yl)benzofuran-5-yl)prop-2-yn-1-yl)picolinamide], in assay [1], the DC50 was more than 1000 nM and the Dmax is less than 20%. Also, in assay [2], the Dmax is more than 80% and the DC50 was in the range of 1 to 9.9 nM.
For `Cc1cc2c(N3CCCc4nc(-c5ccc(C(=O)NCC#Cc6ccc7occ(C8CCC(=O)NC8=O)c7c6)nc5)ncc43)nc(N3CC4(COC4)C3)cc2n(C)c1=O` (stereo not drawn) [Example B137, 5-(5-(1,3-dimethyl-2-oxo-7-(2-oxa-6-azaspiro[3.3]heptan-6-yl)-1,2-dihydro-1,6-naphthyridin-5-yl)-5,6,7,8-tetrahydropyrido [3,2-d]pyrimidin-2-yl)-N-(3-(3-(2,6-dioxo-piperidin-3-yl)benzofuran-5-yl)prop-2-yn-1-yl)picolinamide], the DC50 in assay [1] is more than 1000 nM; in assay [2] it was 1 to 9.9 nM. Moreover, the values for the Dmax in assay [1] and in assay [2] were less than 20% and 60 to 79%, respectively.
